Results from patent publication US20230407243A1, “GENETIC PLATFORM TO INVESTIGATE THE FUNCTIONS OF BACTERIAL DRUG EFFLUX PUMPS” (priority 2022, published 2023).
Read-outs that look alike come from different tables or passages of the source.

Columns and labels:
Format in all cases: cell-based, Escherichia coli
EKO-35 araC::emrAB = test: MIC susceptibility profiling, efflux platform; details: for Fold change of MICs: EKO-35 araC::emrAB compared to EKO-35; for MIC: Escherichia coli, Table 13B, non-porinated, technical duplicate, read-out: Minimum Inhibitory Concentration, EKO-35 araC::emrAB
Outline: (§1)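 Steps: LB overnight culture at 37 °C; resuspension in PBS to OD600 ~1.0; 1/2000 dilution in MHB II; addition to 2-fold serial compound dilutions (duplicate); 18 h shaking incubation at 37 °C; OD600 read, with pre-read subtracted.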

EKO-35 araC::acrBD408A = test: MIC susceptibility profiling, efflux platform; details: for Fold change of MICs: EKO-35 araC::acrBD408A compared to EKO-35; for MIC: Escherichia coli, Table 13B, non-porinated, technical duplicate, read-out: Minimum Inhibitory Concentration, EKO-35 araC::acrBD408A
Outline: as §1

EKO-35 araC::macAB = test: MIC susceptibility profiling, efflux platform; details: for Fold change of MICs: EKO-35 araC::macAB compared to EKO-35; for MIC: Escherichia coli, Table 13B, non-porinated, technical duplicate, read-out: Minimum Inhibitory Concentration, EKO-35 araC::macAB
Outline: as §1

EKO-35 araC::mdtEF = test: MIC susceptibility profiling, efflux platform; details: for Fold change of MICs: EKO-35 araC::mdtEF compared to EKO-35; for MIC: Escherichia coli, Table 13A, non-porinated, technical duplicate, read-out: Minimum Inhibitory Concentration, EKO-35 araC::mdtEF
Outline: as §1

EKO-35 araC::acrEF = test: MIC susceptibility profiling, efflux platform; details: for Fold change of MICs: EKO-35 araC::acrEF compared to EKO-35; for MIC: Escherichia coli, Table 13A, non-porinated, technical duplicate, read-out: Minimum Inhibitory Concentration, EKO-35 araC::acrEF
Outline: as §1

EKO-35 araC::emrKY = test: MIC susceptibility profiling, efflux platform; details: for Fold change of MICs: EKO-35 araC::emrKY compared to EKO-35; for MIC: Escherichia coli, Table 13B, non-porinated, technical duplicate, read-out: Minimum Inhibitory Concentration, EKO-35 araC::emrKY
Outline: as §1

EKO-35 araC::acrD Pore = test: MIC susceptibility profiling, porinated efflux platform; details: for Fold changes of MICs: EKO-35 araC::acrD Pore compared to EKO-35-Pore; for MIC: Escherichia coli, Table 14A, porinated, technical duplicate, read-out: Minimum inhibitory concentration, EKO-35 araC::acrD Pore
Outline: (§2)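 E. coli strains carrying a genomically integrated constitutive fhuA ΔC/Δ4L pore were grown 18 h in LB at 37 °C, then diluted 1/2000 in MHB II from OD600 ~1.0. Compounds were tested in duplicate, 2-fold serial titration, for 18 h at 37 °C with shaking. MIC came from OD600 with the pre-incubation background subtracted.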

EKO-35 araC::mdtBC Pore = test: as above; details: for Fold changes of MICs: EKO-35 araC::mdtBC Pore compared to EKO-35-Pore; for MIC: Escherichia coli, EKO-35 araC::mdtBC Pore, technical duplicate, read-out: Minimum inhibitory concentration
Outline: as §2

EKO-35 araC::acrEF Pore = test: as above; details: for Fold changes of MICs: EKO-35 araC::acrEF Pore compared to EKO-35-Pore; for MIC: Escherichia coli, Table 14A, porinated, technical duplicate, read-out: Minimum inhibitory concentration, EKO-35 araC::acrEF Pore
Outline: as §2

[1] = tested on: EKO-35 araC::acrBD408A Pore; test: as above; details: for Fold changes of MICs: EKO-35 araC::acrBD408A Pore compared to EKO-35-Pore; for MIC: Escherichia coli, EKO-35 araC::acrBD408A Pore, technical duplicate, read-out: Minimum inhibitory concentration
Outline: as §2

EKO-35 araC::emrKY Pore = test: as above; details: for Fold changes of MICs: EKO-35 araC::emrKY Pore compared to EKO-35-Pore; for MIC: Escherichia coli, EKO-35 araC::emrKY Pore, technical duplicate, read-out: Minimum inhibitory concentration
Outline: as §2

EKO-35 araC::mdtEF Pore = test: as above; details: for Fold changes of MICs: EKO-35 araC::mdtEF Pore compared to EKO-35-Pore; for MIC: Escherichia coli, Table 14A, porinated, technical duplicate, read-out: Minimum inhibitory concentration, EKO-35 araC::mdtEF Pore
Outline: as §2

EKO-35 araC::mexCD Pore = test: as above; details: for Fold changes of MICs: EKO-35 araC::mexCD Pore compared to EKO-35-Pore; for MIC: Escherichia coli, EKO-35 araC::mexCD Pore, technical duplicate, read-out: Minimum inhibitory concentration
Outline: as §2

EKO-35 araC::macAB Pore = test: as above; details: for Fold changes of MICs: EKO-35 araC::macAB Pore compared to EKO-35-Pore; for MIC: Escherichia coli, EKO-35 araC::macAB Pore, technical duplicate, read-out: Minimum inhibitory concentration
Outline: as §2

EKO-35 araC::acrB Pore = test: as above; details: for Fold changes of MICs: EKO-35 araC::acr-B Pore compared to EKO-35-Pore
Outline: as §2

EKO-35 araC::emrAB Pore = test: as above; details: for Fold changes of MICs: EKO-35 araC::emrAB Pore compared to EKO-35-Pore; for MIC: Escherichia coli, EKO-35 araC::emrAB Pore, technical duplicate, read-out: Minimum inhibitory concentration
Outline: as §2

ΔtolC-Pore = test: microbe, parasite or virus in culture; details: for MIC: Escherichia coli, 18 h, read-out: Minimum inhibitory concentration, ΔtolC-Pore; for Minimum inhibitory concentration (MIC), Pore ΔtolC: Table 10, with pore, technical duplicate
Outline: as §2

wild-type (WT) K-12-Pore = test: microbe, parasite or virus in culture; details: Escherichia coli, technical duplicate
Outline: as §2

[2] = Table 10, with pore, read-out: Minimum inhibitory concentration (MIC), Pore K-12
[3] = Table 14A, porinated, read-out: Minimum inhibitory concentration, K-12 (WT)-Pore

Row | SMILES | Fold change of MICs (EKO-35 araC::emrAB) | MIC (EKO-35 araC::emrAB) | Fold change of MICs (EKO-35 araC::acrBD408A) | MIC (EKO-35 araC::acrBD408A) | Fold change of MICs (EKO-35 araC::macAB) | MIC (EKO-35 araC::macAB) | Fold change of MICs (EKO-35 araC::mdtEF) | MIC (EKO-35 araC::mdtEF) | Fold change of MICs (EKO-35 araC::acrEF) | MIC (EKO-35 araC::acrEF) | Fold change of MICs (EKO-35 araC::emrKY) | MIC (EKO-35 araC::emrKY) | Fold changes of MICs (EKO-35 araC::acrD Pore) | MIC (EKO-35 araC::acrD Pore) | Fold changes of MICs (EKO-35 araC::mdtBC Pore) | MIC (EKO-35 araC::mdtBC Pore) | Fold changes of MICs (EKO-35 araC::acrEF Pore) | MIC (EKO-35 araC::acrEF Pore) | Fold changes of MICs [1] | MIC [1] | other results
1 | [H]/N=C(/N)N[C@H]1[C@H](O)[C@@H](O)[C@H](O[C@@H]2O[C@@H](C)[C@](O)(C=O)[C@H]2O[C@@H]2O[C@@H](CO)[C@H](O)[C@@H](O)[C@@H]2NC)[C@@H](N/C(N)=N\[H])[C@@H]1O [Streptomycin] | 1 fold | 3.12 µg/mL | 1 fold | 3.12 µg/mL | 1 fold | 3.12 µg/mL | 2 fold | 6.25 µg/mL | 1 fold | 3.12 µg/mL | 1 fold | 3.12 µg/mL | 1 fold | 3.12 µg/mL | 1 fold | 3.12 µg/mL | 1 fold | 3.12 µg/mL | 1 fold | 1.56 µg/mL | Fold changes of MICs (EKO-35 araC::emrKY Pore): 1 fold; MIC (EKO-35 araC::emrKY Pore): 3.12 µg/mL; Fold changes of MICs (EKO-35 araC::mdtEF Pore): 1 fold; MIC (EKO-35 araC::mdtEF Pore): 3.12 µg/mL; Fold changes of MICs (EKO-35 araC::mexCD Pore): 1 fold; MIC (EKO-35 araC::mexCD Pore): 3.12 µg/mL; Fold changes of MICs (EKO-35 araC::macAB Pore): 1 fold; MIC (EKO-35 araC::macAB Pore): 3.12 µg/mL; Fold changes of MICs (EKO-35 araC::acrB Pore): 2 fold; MIC (EKO-35 araC::acrB Pore; Escherichia coli, Table 14A, porinated, technical duplicate, read-out: Minimum inhibitory concentration, EKO-35 araC::acrB Pore): 6.25 µg/mL; Fold changes of MICs (EKO-35 araC::emrAB Pore): 1 fold; MIC (EKO-35 araC::emrAB Pore): 3.12 µg/mL; MIC (ΔtolC-Pore): 1.56 µg/mL; Minimum inhibitory concentration (MIC), Pore ΔtolC (ΔtolC-Pore): 1.563 µg/mL; MIC (wild-type (WT) K-12-Pore; [2]): 12.5 µg/mL; MIC (wild-type (WT) K-12-Pore; [3]): 12.5 µg/mL
2 | O=C(N[C@H](CO)[C@H](O)c1ccc([N+](=O)[O-])cc1)C(Cl)Cl [chloramphenicol] | 1 fold | 0.781 µg/mL | 1 fold | 0.781 µg/mL | 1 fold | 0.781 µg/mL | 1 fold | 0.781 µg/mL | 2 fold | 1.56 µg/mL | 1 fold | 0.391 µg/mL | 1 fold | 0.781 µg/mL | 1 fold | 0.781 µg/mL | 1 fold | 0.781 µg/mL | 1 fold | 0.781 µg/mL | Fold changes of MICs (EKO-35 araC::emrKY Pore): 1 fold; MIC (EKO-35 araC::emrKY Pore): 0.391 µg/mL; Fold changes of MICs (EKO-35 araC::mdtEF Pore): 1 fold; MIC (EKO-35 araC::mdtEF Pore): 0.781 µg/mL; Fold changes of MICs (EKO-35 araC::mexCD Pore): 1 fold; MIC (EKO-35 araC::mexCD Pore): 0.781 µg/mL; Fold changes of MICs (EKO-35 araC::macAB Pore): 1 fold; MIC (EKO-35 araC::macAB Pore): 0.781 µg/mL; Fold changes of MICs (EKO-35 araC::acrB Pore): 4 fold; Fold changes of MICs (EKO-35 araC::emrAB Pore): 1 fold; MIC (EKO-35 araC::emrAB Pore): 0.781 µg/mL; MIC (ΔtolC-Pore): 0.781 µg/mL; Minimum inhibitory concentration (MIC), Pore ΔtolC (ΔtolC-Pore): 0.781 µg/mL; MIC (wild-type (WT) K-12-Pore; [2]): 3.12 µg/mL; MIC (wild-type (WT) K-12-Pore; [3]): 3.12 µg/mL
